PubChem BioAssay (NCI)
“And” between values parts separate entries of the source, which are not always exact repeats. Identical values can stand only once.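 Method: 48-hour compound exposure of cells in 96-well plates, five concentrations, linear interpolation of endpoints. At the GI50, growth is halved. TGI denotes the concentration required for complete inhibition of growth.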

Assays:
Experiment in all cases: inhibition of tumour cell growth, NCI panel, 48 h
[1] = tested on: ACHN renal
[2] = tested on: HCT-116 colon
[3] = tested on: HL-60(TB) leukemia
[4] = tested on: HT29 colon
[5] = tested on: KM12 colon
[6] = tested on: MDA-MB-231 breast
[7] = tested on: NCI-H23 lung
[8] = tested on: NCI/ADR-RES ovarian
[9] = tested on: OVCAR-4 ovarian
[10] = tested on: RPMI-8226 leukemia
[11] = tested on: SK-MEL-2 melanoma
[12] = tested on: SK-MEL-28 melanoma
[13] = tested on: SR leukemia
[14] = tested on: RXF 393 renal

| Compound | TGI [1] | TGI [2] | TGI [3] | TGI [4] | TGI [5] | TGI [6] | TGI [7] | TGI [8] | TGI [9] | TGI [10] | TGI [11] | TGI [12] | TGI [13] | TGI [14] | GI50 [1] | GI50 [3] | GI50 [6] | GI50 [8] | GI50 [14] | GI50 [13] |
| --- | --- | --- | --- | --- | --- | --- | --- | --- | --- | --- | --- | --- | --- | --- | --- | --- | --- | --- | --- | --- |
| C=CCNC(=O)/C(Cc1cc(Br)c(OC)c(Br)c1O)=N\O | > 100 µM | 12.7 µM | 5.43 µM | 35 µM | 19.8 µM | 32.6 µM | 18.1 µM | 11.4 µM | 84.6 µM | > 100 µM | 44.5 µM | 31 µM | > 100 µM |  |  |  |  |  |  |  |
| CN1CC2=C(NC(=S)NC2c2ccc(Cl)cc2)/C(=C/c2ccc(Cl)cc2)C1 (stereo not given) | 57.9 µM | 29.2 µM | 48 µM | 34 µM | 38.2 µM | 39.8 µM | 43.8 µM | 43.6 µM |  | 92.4 µM | 30.2 µM | 33.9 µM | 51.5 µM |  |  |  |  |  |  |  |
| CC(=O)NCC1(c2ccccc2)CCN(CC2COc3ccccc3O2)CC1 (stereo not given) | > 100 µM | > 100 µM | > 100 µM | > 100 µM | > 100 µM | > 100 µM | > 100 µM | > 100 µM | > 100 µM | > 100 µM | > 100 µM | > 100 µM | > 100 µM | > 100 µM |  |  |  |  |  |  |
| CC(=O)O[C@H]1C(=O)[C@@]2(C)[C@H]([C@H](OC(=O)c3ccc([N+](=O)[O-])cc3)[C@]3(O)C[C@H](OC(=O)[C@H](O)[C@@H](NC(=O)c4ccccc4)c4ccccc4)C(C)=C1C3(C)C)[C@]1(OC(C)=O)CO[C@@H]1C[C@@H]2O | > 25 µM | > 25 µM | > 25 µM | > 25 µM | > 25 µM | > 25 µM | > 25 µM | > 25 µM | > 25 µM | > 25 µM |  | > 25 µM | > 25 µM | > 25 µM |  |  |  |  |  |  |
| CC(=O)OCC1OC(n2c3c(c(-c4ccc(Cl)cc4)c(C#N)c2=S)C(=O)CC(C)(C)C3)C(OC(C)=O)C(OC(C)=O)C1OC(C)=O (stereo not given) | > 100 µM | > 100 µM | > 61.1 µM | > 72.2 µM | > 77.4 µM | 37 µM | > 100 µM | > 67.8 µM | > 100 µM | > 100 µM | 46.4 µM | 65.9 µM | > 100 µM | 68.8 µM |  |  |  |  |  |  |
| CN(C)CCOC1(Cc2ccc(Cl)cc2Cl)CCC(C(C)(C)C)CC1 (stereo not given) | 5.28 µM and 4.05 µM | 3.13 µM and 3.45 µM | 3.61 µM and 3.92 µM | 3.16 µM and 3.13 µM | 3.27 µM and 3.36 µM | 8.16 µM and 3.34 µM | 5.74 µM and 4.15 µM | 4.52 µM and 3.12 µM | 3.87 µM and 3.85 µM | 4.92 µM and 5.42 µM | 3.89 µM and 3.33 µM | 3.2 µM and 2.83 µM | 4.64 µM and 1.47 µM | 3.11 µM and 3.28 µM | 1990 nM | 1450 nM and 2080 nM | 3.39 µM | 1990 nM | 1680 nM | 1870 nM |
| CC1(C)CCCCCCCCCC(C)(CCCO)C1=O (stereo not given) | 31.7 µM | 31.2 µM | 45 µM | 26.6 µM | 33 µM | 28.7 µM | 29.1 µM | 30.5 µM | 29 µM | 84.8 µM | 28.9 µM | 34.2 µM | > 100 µM | 34.4 µM |  |  |  |  |  |  |
